Values joined by “and” are separate entries in the source; they are usually repeats but may differ in a detail not shown here. Equal entries are not always repeated.
Experiments:
Bcl-2 [1] = experiment: Bcl-2 phosphorylation by Western blot in MCF-7 cells; type: cell-based; details: MCF-7 breast cancer cells
Procedure: (§1) Experiments were performed to determine the activity of two of the sesquiterpene compounds isolated from Inula britannica, OABL and OODABL, as cancer preventative agents. Using a Western blot technique, the ability of these compounds to phosphorylate Bcl-2 in cancer cells was examined. […] OODABL induced Bcl-2 phosphorylation at lower effective doses, 2.5 and 5 μM.

Bcl-2 [2] = experiment: Bcl-2 phosphorylation in OVCAR ovarian cancer cells; type: cell-based
Procedure: as §1
(§2) In two ovarian cancer cell lines, OVCAR and PA-1, similar results were seen. In OVCAR cells, OODABL induced Bcl-2 phosphorylation at a dose of 5 μM, while OABL induced Bcl-2 phosphorylation at a dose of 10 μM. In PA-1 cells, OODABL induced Bcl-2 phosphorylation at a dose of 5 μM, while OABL induced Bcl-2 phosphorylation at a dose of 10 μM.

Bcl-2 [3] = experiment: Bcl-2 phosphorylation in PA-1 ovarian cancer cells; type: cell-based; details: PA-1 cells
Procedure: as §1, §2

Bcl-2 [4] = experiment: Bcl-2 phosphorylation in a prostate cancer cell line; type: cell-based
Procedure: as §1
In a prostate cancer cell line, these compounds were also able to induce Bcl-2 phosphorylation. OODABL induced Bcl-2 phosphorylation at a dose of 5 μM while OABL induced Bcl-2 phosphorylation at a dose of 10 μM.

PARP = PARP cleavage (apoptosis indicator) by Western blot in PA-1 cells; type: cell-based; details: 24 hours
Procedure: Using cleavage of PARP as an indicator of apoptosis, the compositions of the present invention were tested in PA-1 ovary cells. PARP is a 116 kD nuclear poly (ADP-ribose)polymerase that appears to be involved in DNA-repair, predominantly in response to environmental stress (Satoh, M. S. and T. Lindahl. 1992. Nature 356:356-358). PARP is important for cells to maintain their viability. Cleavage of PARP facilitates cellular disassembly and serves as a marker of cells undergoing apoptosis (Oliver, F. J. et al. 1998. J. Biol. Chem. 273:33533-33539). This protein can be cleaved by many ICE caspases to form a 85 kD protein in cells undergoing apoptosis. PA-1 cells were treated with OODABL for 24 hours. Cells were lysed and PARP cleavage was measured by Western Blot using a monoclonal antibody to PARP (Pharmingen, Inc., San Diego, Calif.). OABL induced PARP cleavage at doses of 10 and 20 μM, while OODABL induced PARP cleavage at a dose of 5 μM.

PA-1 cells = experiment: MTT cell viability assay, PA-1; type: cell-based
Procedure: (§3) Cell viability was then assessed in a microculture tetrazolium/formazan assay (MTT; Scudiero, D. A. et al. 1988. Cancer Res. 48:4827-4833) using a variety of cell lines. Absorbance was measured at 550 nm and cell viability was expressed as the percentage of drug treated cells relative to that of controls. The IC50 was then defined as the concentration of drug that produced a 50% decrease in cell viability relative to controls. OODABL was first tested in a variety of cell lines. […] In NIH 3T3 (normal mouse fibroblasts) cells treated with various concentrations of OODABL (1, 10, 20 and 50 μM OODABL), cell viability was decreased in a dose-dependent manner with an IC50 of 50 μM.
(§4) OABL was then tested in some of these same cell lines. In MCF-7 cells, OABL was tested at doses of 0.3 nm, 3 nm, 30 nm, 300 nm, 3 μM, and 30 μM.

DU-145 cells = experiment: MTT cell viability assay, DU-145; type: cell-based
Procedure: as §3, §4

[5] = tested on: breast cancer cell line T47D; experiment: Cell cycle analysis by flow cytometry; type: cell-based; details: T47D cells, 20 μM, compared to control cells
Procedure: The effect of OODABL on cell cycle was analyzed by flow cytometery using breast cancer cell lin T47D.

[6] = tested on: microtubules (tubulin) in MCF-7 cells; experiment: Microtubule indirect immunofluorescence in MCF-7 cells; type: cell-based; details: 12 hours
Procedure: The effect of OODABL on microtubules was examined by indirect immunofluorescence of MCF-7 cells using an antibody to tubulin after 12 hours treatment with either a vehicle control, 10 μM paclitaxel (positive control), or 20 μM OODABL.

HL-60 cells = experiment: TUNEL assay (APO-BRDU flow cytometry), late apoptosis; type: cell-based; details: 12 hours
Procedure: In a TUNEL assay, the effect of OODABL on late apoptosis was examined. HL-60 cells lines were subjected to flow cytometry analysis using APO-BRDU. Apoptosis was detected by incorporation of Br-dUTP using a fluorescein labeled anti-BrdU monoclonal antibody after treatment with a vehicle control, 1 μM camptothecin or 20 μM OODABL for 12 hours.

MCF-7 cells = experiment: MTT cell viability assay, MCF-7; type: cell-based
Procedure: as §3, §4

[7] = tested on: NIH 3T3 (normal mouse fibroblasts) cells; experiment: MTT cell viability assay, NIH 3T3; type: cell-based
Procedure: as §3

PC-3 prostate cells = experiment: Clonogenic assay, PC-3; type: cell-based; details: PC-3 cells, 15 days; read-out: IC50 clonogenic assay (colonies counted)
Procedure: (§5) Cell cytotoxicity was also assessed by a clonogenic assay. MCF-7 breast cells were treated with various concentrations of OODABL (625 nm, 1.25, 2.5, 5 and 10 μM) for 15 days and cells were then stained with methylene blue and colonies counted. […] PC-3 prostate cells were treated with various concentrations of OODABL (20 and 200 nm, and 2 and 20 μM) for 15 days and cells were then stained with methylene blue and colonies counted. The IC50 was in the range of 200 nm OODABL. RKO cells were treated with various concentrations of OODABL (20 and 200 nm, and 2 and 20 μM) for 15 days and cells were then stained with methylene blue and colonies counted. The IC50 was in the range of 20 μM OODABL. Baby rat kidney cells were transformed with E1A and transfected with the Bcl-2 gene to form BRK-4B-Bcl-2 cells. These cells were treated with various concentrations of OODABL (20 and 200 nm, and 2, 10 and 20 μM) for 15 days and cells were then stained with methylene blue and colonies counted. The IC50 was in the range of 200 nM OODABL. Baby rat kidney cells were transformed with E1A and transfected with Bcl-2 gene in which phosphorylation sites were mutated to form phosphomutant BRK-4B-Bcl-2 cells. These cells were treated with various concentrations of OODABL (20 and 200 nm, and 2 and 20 μM) for 15 days and cells were then stained with methylene blue and colonies counted. […]

RKO cells = experiment: Clonogenic assay, RKO; type: cell-based; details: 15 days, read-out: IC50 clonogenic assay (colonies counted)
Procedure: as §5

BRK-4B-Bcl-2 cells = experiment: Clonogenic assay, BRK-4B-Bcl-2; type: cell-based, rat; details: 15 days, read-out: IC50 clonogenic assay (colonies counted)
Procedure: as §5

[8] = tested on: phosphomutant BRK-4B-Bcl-2 cells; experiment: Clonogenic assay, phosphomutant BRK-4B-Bcl-2; type: cell-based, rat; details: 15 days, read-out: IC50 clonogenic assay (colonies counted)
Procedure: as §5

Bcl-2 [9] = experiment: Bcl-2 phosphorylation by Western blot in non-mutated BRK-4B-Bcl-2 cells; type: cell-based, rat; details: 12 hours
Procedure: (§6) The level of Bcl-2 phosphorylation was then assessed in the non-mutated and mutated BRK-4B-Bcl-2 cells using a Western blot assay. Cells were initially treated for 12 hours with the test compound, OODABL (at concentrations of 10, 20, 30, 40, or 60 μM). Taxol was used as a positive control at a concentration of 5 μM. Cells were then lysed in ice cold radio-immune precipitation buffer with inhibitors. Equivalent amounts of proteins were electrophoresed by 12% dodecyl sulfate-polyacrylamide gel electrophoresis and transferred to nitrocellulose. Bcl-2 and phosphorylated Bcl-2 proteins were detected using a monoclonal Bcl-2 primary antibody and a secondary goat anti-mouse horseradish peroxidase conjugated antibody followed by enhanced chemiluminescence detection.

[10] = tested on: Bcl-2 (phosphorylation sites mutated); experiment: Bcl-2 phosphorylation by Western blot in mutated BRK-4B-Bcl-2 cells; type: cell-based; details: mutated rat kidney cells, 12 hours
Procedure: as §6

C=C1C(=O)OC2CC(C)=C(C(C)CCCOC(C)=O)C(O)C12 (stereo not drawn) [OABL, 1-O-acetylbritannilactone]
effective dose inducing Bcl-2 phosphorylation (Bcl-2 [1]): 10 µM and 20 µM | dose inducing Bcl-2 phosphorylation (Bcl-2 [2]): 10 µM | dose inducing Bcl-2 phosphorylation (Bcl-2 [3]): 10 µM | dose inducing Bcl-2 phosphorylation (Bcl-2 [4]): 10 µM | dose inducing PARP cleavage (PARP): 10 µM and 20 µM | IC50 (PA-1 cells): ~2000 nM | cell viability (MTT), result in words (DU-145 cells; Du-145 cells, 4.68-100 μM): decreased cell viability

C=C1C(=O)OC2CC(C)=C(C(C)CCCOC(C)=O)C(OC(C)=O)C12 (stereo not drawn) [OODABL, 1,6-O,O-diacetylbritannilactone]
effective dose inducing Bcl-2 phosphorylation (Bcl-2 [1]): 2.5 µM and 5 µM | dose inducing Bcl-2 phosphorylation (Bcl-2 [2]): 5 µM | dose inducing Bcl-2 phosphorylation (Bcl-2 [3]): 5 µM | dose inducing Bcl-2 phosphorylation (Bcl-2 [4]): 5 µM | dose inducing PARP cleavage (PARP): 5 µM | effect on cell cycle [5]: arrested cells at the G2/M phase | effect on microtubules ([6]; 20 μM): polymerized microtubules | late apoptosis (Br-dUTP incorporation) (HL-60 cells; 20 μM): induce apoptosis | IC50 (MCF-7 cells): < 12500 nM | IC50 (PA-1 cells): < 7820 nM | IC50 (DU-145 cells; DU-145 cells): < 15600 nM | IC50 [7]: 50000 nM | IC50 (PC-3 prostate cells): ~200 nM | IC50 (RKO cells): ~20000 nM | IC50 (BRK-4B-Bcl-2 cells): ~200 nM | IC50 [8]: ~2000 nM | level of Bcl-2 phosphorylation (Bcl-2 [9]; non-mutated cells, 10, 20, 30, 40, or 60 μM): dose-dependent increase in Bcl-2 phosphorylation | level of Bcl-2 phosphorylation ([10]; 10-60 μM): no phosphorylation evident

CC[C@@]1(O)C(=O)OCc2c1cc1n(c2=O)Cc2cc3ccccc3nc2-1 [camptothecin, reference compound]
late apoptosis (Br-dUTP incorporation) (HL-60 cells; 1 μM, positive control): induce apoptosis

CC(=O)O[C@H]1C(=O)[C@@]2(C)[C@H]([C@H](OC(=O)c3ccccc3)[C@]3(O)C[C@H](OC(=O)[C@H](O)[C@@H](NC(=O)c4ccccc4)c4ccccc4)C(C)=C1C3(C)C)[C@]1(OC(C)=O)CO[C@@H]1C[C@@H]2O [paclitaxel, reference compound]
effective dose inducing Bcl-2 phosphorylation (Bcl-2 [1]): 100 µM | effect on microtubules ([6]; 10 μM, positive control): polymerized microtubules | level of Bcl-2 phosphorylation (Bcl-2 [9]; non-mutated cells, 5 μM, positive control): increased in protein phosphorylation | level of Bcl-2 phosphorylation ([10]; 5 μM): no phosphorylation evident
